Experimental data taken from patent US20240376099A1, “COMPOUNDS AND COMPOSITIONS AS INHIBITORS OF ENDOSOMAL TOLL-LIKE RECEPTORS” (Novartis AG, priority 2016, published 2024).

Each compound was assayed against T1, TLR7 (Homo sapiens, UniProt Q9NYK1) (assay: huPBMC TLR7 Antagonist IFNα Assay). Details: human PBMCs stimulated with ssRNA40 10 μg/mL (DOTAP), 14-16 hrs; IFNα2b AlphaLISA read-out.
T1 construct: Fresh blood was collected from normal human donors; endogenous in cells; host or cells: human PBMCs from fresh donor blood
T1 sequence (Q9NYK1 27-1049): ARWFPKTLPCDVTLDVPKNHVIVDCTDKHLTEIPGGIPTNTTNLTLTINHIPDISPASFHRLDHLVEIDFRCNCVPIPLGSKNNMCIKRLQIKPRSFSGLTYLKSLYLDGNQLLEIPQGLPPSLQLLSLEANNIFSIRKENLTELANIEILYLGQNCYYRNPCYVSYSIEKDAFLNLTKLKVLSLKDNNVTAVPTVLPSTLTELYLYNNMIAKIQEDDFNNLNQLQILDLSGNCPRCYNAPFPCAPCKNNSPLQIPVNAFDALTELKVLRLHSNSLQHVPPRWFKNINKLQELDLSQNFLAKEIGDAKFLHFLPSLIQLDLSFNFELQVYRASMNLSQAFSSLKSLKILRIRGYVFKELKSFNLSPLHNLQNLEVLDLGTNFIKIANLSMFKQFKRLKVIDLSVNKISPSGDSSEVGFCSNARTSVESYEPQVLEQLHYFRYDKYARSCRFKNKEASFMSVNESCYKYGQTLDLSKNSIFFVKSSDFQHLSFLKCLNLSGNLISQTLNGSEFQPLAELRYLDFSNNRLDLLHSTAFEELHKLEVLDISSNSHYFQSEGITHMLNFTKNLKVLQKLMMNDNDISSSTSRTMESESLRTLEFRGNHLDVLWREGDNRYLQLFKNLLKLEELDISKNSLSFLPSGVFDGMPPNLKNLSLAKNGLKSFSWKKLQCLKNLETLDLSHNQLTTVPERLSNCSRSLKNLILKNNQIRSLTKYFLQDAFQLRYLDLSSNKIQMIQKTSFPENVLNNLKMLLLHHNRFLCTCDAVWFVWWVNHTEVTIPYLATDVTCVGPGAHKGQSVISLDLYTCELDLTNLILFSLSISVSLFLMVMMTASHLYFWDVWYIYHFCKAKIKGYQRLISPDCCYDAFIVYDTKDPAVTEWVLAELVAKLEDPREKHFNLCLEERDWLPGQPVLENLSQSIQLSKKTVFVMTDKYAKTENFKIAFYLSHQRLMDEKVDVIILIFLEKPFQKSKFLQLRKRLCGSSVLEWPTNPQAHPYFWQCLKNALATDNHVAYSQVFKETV
Assay type: cell-based
Experimental: Compounds were generally serially diluted (1/3) in DMSO and plated on sterile 384 well tissue culture plates and stored until ready for use. Each ten-point dilution was typically plated in triplicate in parallel rows.
Fresh blood was collected from normal human donors underwritten informed consent in heparinized syringes on the morning of the assay. The blood was diluted in RPMI-1640 medium and the white blood cells were separated from red blood cells by centrifugation (800 g 15′ 0 acceleration, 0 brake) on a Ficoll cushion. Peripheral blood mononuclear cells (PBMCs) were separated from platelets by a series of low-speed centrifugations (1000RPM 10′) in PBS+5% HI—FBS and 1 mM EDTA. Purified PBMCs were re-suspended in assay medium (RPMI-1640 w Glutamax (Invitrogen) supplemented with 5% HI—FBS, 10 mM HEPES, 50 uM β-mercaptoethanol, and 100 mG/L penicillin/streptomycin cocktail). Viable PBMCs were counted on a hemacytometer and kept on ice until ready for plating.
A 4× concentration (4 ug/ml or 40 ug/ml for TLR8 or TLR7 assays, respectively) of the TLR7/8 agonist ssRNA40 (IDT) was complexed with 10% DOTAP (Roche) in assay medium for 30 min prior to addition to the PBMC suspension (5 million cells/ml). After addition, the final concentration of ssRNA40 in the TLR7/8 stimulated PBMC suspension was 1 μg/ml for TLR8 assay, and 10 μg/mL for the TLR7 assay. The final DOTAP concentration was 2.5%. Diluted PBMCs (5 million cells/ml) were treated with 4×TLR9 agonist ODN2216 (Invivogen). Final concentration of ODN2216 in TLR9 stimulated PBMC suspension was 0.3 μM.
Agonist stimulated PBMCs were plated on the compound treated 384 well plates at 150,000 cells/well. Un-stimulated PBMCs were plated as controls on each plate. Plating volume was 40 μL per well. DMSO concentration in each well was 0.25%.
A separate plate, without compounds, with titrations of ssRNA40 and ODN2216 was included in every assay to measure agonist response of each donor's PBMC prep. Assay plates were placed in a tissue culture incubator (37° C., 5% CO2) for 14-16 hrs. After this incubation, the plates were centrifuged and stored at −20° C. until they were assayed.
IL-6 TR-FRET Assay for TLR8 activity: • 1) Cisbio Human IL-6 kit, 20,000 tests (62TNFPEC), and GNF High-Base TC 384 well plates (cat #789163G) were used; • 2) the Anti-TIL-6 Cryptate conjugate and the Anti-IL-6 XL665 conjugate were diluted 1:20 in Reconstitution Buffer; • 3) a 1:1 mixture of 3 μl/well Anti-IL-6 Cryptate conjugate and 3 μl/well Anti-IL-6 XL665 conjugate was prepared; • 4) 6 μl/well HTRF dilution mastermix was added to 6 μl of transferred supernatant samples in proxiplates; • 5) The plates were incubated for 3 hrs at rt in the dark; and • 6) the levels of IL-6 production was measured using an Envision plate reader (665 nm (emmission)/590 nm (excitation)) with HTRF settings and ratiometric read-out: (XL665 emission/Eu Cryptate emission)×10,000. IFNα2b AlphaLISA Assay for TLR7 or TLR9 activity After thawing the assay plates, 6 μL of supernatant samples were transferred to a low-volume AlphaPlate 384SW (Perkin-Elmer). The concentration of IFNα in supernatants was measured using the IFNα2b AlphaLISA Assay (Perkin-Elmer: AL297F). 3 μL of IFNα acceptor beads/biotinylated antibody solution was added first, using laboratory automation. After an hour incubation, […] of streptavidin […] bead solution was added. The plates containing this mixture were incubated in the dark for an hour and read on an appropriate plate reader at reading parameters set by the manufacturer. (Envision, EnSpire: Perkin-Elmer).

In order of falling IC50:
1. Cc1nc(N2CCc3c(c(C)nn3CC34CCC(N)(CC3)CC4)C2)c2c(n1)c(C)nn2C [Compound No. 26, 4-((3-methyl-5-(1,3,5-trimethyl-1H-pyrazolo[4,3-d]pyrimidin-7-yl)-4,5,6,7-tetrahydro-1H-pyrazolo[4,3-c]pyridin-1-yl)methyl)bicyclo[2.2.2]octan-1-amine]  644 nM
2. Cc1cc(N2CCc3c(c(C)nn3CC34CCC(N5CCN(C)C(=O)C5)(CC3)CC4)C2)c2cnn(C)c2n1 [Compound No. 104, 4-(4-((5-(1,6-dimethyl-1H-pyrazolo[3,4-b]pyridin-4-yl)-3-methyl-4,5,6,7-tetrahydro-1H-pyrazolo[4,3-c]pyridin-1-yl)methyl)bicyclo[2.2.2]octan-1-yl)-1-methylpiperazin-2-one]  61 nM
3. Cc1nc(N2CCc3c(c(C)nn3CC34CCC(N5CC6(COC6)C5)(CC3)CC4)C2)c2c(n1)c(C)nn2C [Compound No. 10, 6-(4-((3-methyl-5-(1,3,5-trimethyl-1H-pyrazolo[4,3-d]pyrimidin-7-yl)-4,5,6,7-tetrahydro-1H-pyrazolo[4,3-c]pyridin-1-yl)methyl)bicyclo[2.2.2]octan-1-yl)-2-oxa-6-azaspiro[3.3]heptane]  56 nM
4. Cc1cc(N2CCc3c(c(C)nn3CC34CCC(N)(CC3)CC4)C2)c2ccncc2n1 [Compound No. 3, 4-((3-methyl-5-(2-methyl-1,7-naphthyridin-4-yl)-4,5,6,7-tetrahydro-1H-pyrazolo[4,3-c]pyridin-1-yl)methyl)bicyclo[2.2.2]octan-1-amine]  54 nM
5. Cc1cc(N2CCc3c(c(C)nn3CC34CCC(NC(=O)OC(C)(C)C)(CC3)CC4)C2)c2ccncc2n1 [Compound No. 147, tert-butyl (4-((3-methyl-5-(2-methyl-1,7-naphthyridin-4-yl)-4,5,6,7-tetrahydro-1H-pyrazolo[4,3-c]pyridin-1-yl)methyl)bicyclo[2.2.2]octan-1-yl)carbamate]  33 nM
6. [2H]C([2H])([2H])n1ncc2c(N3CCc4c(c(C)nn4CC45CCC(N)(CC4)CC5)C3)cc(C)nc21 [Compound No. 140, 4-((3-methyl-5-(6-methyl-1-(methyl-d3)-1H-pyrazolo[3,4-b]pyridin-4-yl)-4,5,6,7-tetrahydro-1H-pyrazolo[4,3-c]pyridin-1-yl)methyl)bicyclo[2.2.2]octan-1-amine]  27 nM
7. Cc1cc(N2CCc3c(c(C)nn3CC34CCC(N5CCN(C)CC5=O)(CC3)CC4)C2)c2cnn(C)c2n1 [Compound No. 108, 1-(4-((5-(1,6-dimethyl-1H-pyrazolo[3,4-b]pyridin-4-yl)-3-methyl-4,5,6,7-tetrahydro-1H-pyrazolo[4,3-c]pyridin-1-yl)methyl)bicyclo[2.2.2]octan-1-yl)-4-methylpiperazin-2-one]  21 nM
8. Cc1cc(N2CCc3c(c(C)nn3CC34CCC(NC5COC5)(CC3)CC4)C2)c2cnn(C)c2n1 [Compound No. 6, N-(4-((5-(1,6-dimethyl-1H-pyrazolo[3,4-b]pyridin-4-yl)-3-methyl-4,5,6,7-tetrahydro-1H-pyrazolo[4,3-c]pyridin-1-yl)methyl)bicyclo[2.2.2]octan-1-yl)oxetan-3-amine]  19 nM
9. Cc1cc(N2CCc3c(c(C)nn3CC34CCC(N(C)C)(CC3)CC4)C2)c2cnn(C)c2n1 [Compound No. 43, 4-((5-(1,6-dimethyl-1H-pyrazolo[3,4-b]pyridin-4-yl)-3-methyl-4,5,6,7-tetrahydro-1H-pyrazolo[4,3-c]pyridin-1-yl)methyl)-N,N-dimethylbicyclo[2.2.2]octan-1-amine]  16 nM
10. Cc1cc(N2CCc3c(c(C)nn3CC34CCC(NC(=O)[C@H]5COCCN5)(CC3)CC4)C2)c2cnn(C)c2n1 [Compound No. 9, (R)—N-(4-((5-(1,6-dimethyl-1H-pyrazolo[3,4-b]pyridin-4-yl)-3-methyl-4,5,6,7-tetrahydro-1H-pyrazolo[4,3-c]pyridin-1-yl)methyl)bicyclo[2.2.2]octan-1-yl)morpholine-3-carboxamide]  15 nM
11. Cc1cc(N2CCc3c(c(C)nn3CC34CCC(NC(=O)CN5CC(F)C5)(CC3)CC4)C2)c2cnn(C)c2n1 [Compound No. 133, N-(4-((5-(1,6-dimethyl-1H-pyrazolo[3,4-b]pyridin-4-yl)-3-methyl-4,5,6,7-tetrahydro-1H-pyrazolo[4,3-c]pyridin-1-yl)methyl)bicyclo[2.2.2]octan-1-yl)-2-(3-fluoroazetidin-1-yl)acetamide]  12 nM
12. Cc1cc(N2CCc3c(c(C)nn3CC34CCC(NC(=O)CO)(CC3)CC4)C2)c2cnn(C)c2n1 [Compound No. 135, N-(4-((5-(1,6-dimethyl-1H-pyrazolo[3,4-b]pyridin-4-yl)-3-methyl-4,5,6,7-tetrahydro-1H-pyrazolo[4,3-c]pyridin-1-yl)methyl)bicyclo[2.2.2]octan-1-yl)-2-hydroxyacetamide]  10 nM
13. Cc1cc(N2CCc3c(c(C)nn3CC34CCC(n5ccnc5)(CC3)CC4)C2)c2cnn(C)c2n1 [Compound No. 119, 1-((4-(1H-imidazol-1-yl)bicyclo[2.2.2]octan-1-yl)methyl)-5-(1,6-dimethyl-1H-pyrazolo[3,4-b]pyridin-4-yl)-3-methyl-4,5,6,7-tetrahydro-1H-pyrazolo[4,3-c]pyridine]  6 nM
14. Cc1cc(N2CCc3c(c(C)nn3CC34CCC(NC(=O)CN5CC(O)C5)(CC3)CC4)C2)c2cnn(C)c2n1 [Compound No. 136, N-(4-((5-(1,6-dimethyl-1H-pyrazolo[3,4-b]pyridin-4-yl)-3-methyl-4,5,6,7-tetrahydro-1H-pyrazolo[4,3-c]pyridin-1-yl)methyl)bicyclo[2.2.2]octan-1-yl)-2-(3-hydroxyazetidin-1-yl)acetamide]  6 nM
15. Cc1cc(N2CCc3c(c(C)nn3CC34CCC(NC(=O)[C@@H]5COCCN5)(CC3)CC4)C2)c2cnn(C)c2n1 [Compound No. 8, (S)—N-(4-((5-(1,6-dimethyl-1H-pyrazolo[3,4-b]pyridin-4-yl)-3-methyl-4,5,6,7-tetrahydro-1H-pyrazolo[4,3-c]pyridin-1-yl)methyl)bicyclo[2.2.2]octan-1-yl)morpholine-3-carboxamide]  4 nM
